Measured values: PubChem BioAssay AID2842 (Southern Research Institute, 2010)
In brackets after ≈: the same amount, converted by molar mass.

The molecules below were run on M. tuberculosis H37Rv growth inhibition (assay: Mycobacterium tuberculosis H37Rv growth inhibition, putative kinase inhibitor library, confirmatory dose response (AID 2842);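 note: bacteria incubated one week before Alamar blue readout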).

Row | Compound | IC90 [µg/mL]
1 | O=C(Nc1nnc(-c2cccnc2)o1)c1cc(Cl)ccc1Cl | 27.9 (≈ 83.1 µM)
2 | CCOC(=O)N1CCc2c(sc(NC(=O)CCOc3ccccc3)c2C(N)=O)C1 | 12.4 (≈ 29.7 µM)
3 | O=C(OCn1nnc2ccccc2c1=O)c1ccco1 | 4.76 (≈ 17.5 µM)
4 | O=C(Nc1nnc(-c2ccc(Cl)cc2)o1)c1cc2ccccc2oc1=O | 18.2 (≈ 49.4 µM)
5 | CC(C)COc1ccc(S(=O)(=O)Nc2ccc3c(c2)C(=O)Nc2ccccc2O3)cc1 | 6.99 (≈ 15.9 µM)
6 | COc1ccccc1C(=O)Nc1nnc(-c2ccc(F)cc2)o1 | 34.9 (≈ 111 µM)
7 | CCOc1cc(-c2nnc(NC(=O)c3cccs3)o2)cc(OCC)c1OCC | 3.02 (≈ 7.49 µM)
8 | O=C(Nc1nnc(-c2ccc(Br)cc2)o1)c1cc(Cl)ccc1Cl | 2.67 (≈ 6.46 µM)
9 | COC(=O)c1ccc(C(=O)NNc2nc3ccc(Cl)cc3s2)cc1 | 28.9 (≈ 79.8 µM)
10 | O=C(Nc1nnc(-c2ccncc2)o1)c1cc(Cl)ccc1Cl | 6.58 (≈ 19.6 µM)
11 | N=C1SC(c2ccccc2)C(=O)N1c1nccs1 (stereo unspecified) | 30.1 (≈ 109 µM)
12 | c1ccc2sc(Nc3nc4cc5c(cc4s3)OCO5)nc2c1 | 18.6 (≈ 56.9 µM)
13 | Cc1ccc(NC(=O)CC2C(=O)Nc3ccccc3N2C(=O)c2ccc(Br)cc2)cc1C (stereo unspecified) | 2.24 (≈ 4.55 µM)
14 | O=C(NNc1nc2c(F)cccc2s1)c1cc2ccccc2oc1=O | 8.19 (≈ 23 µM)
15 | O=C(COc1ccccc1)Nc1nnc(-c2cc(Cl)ccc2Cl)o1 | 27.8 (≈ 76.4 µM)
16 | O=C(Nc1nnc(-c2ccc(Br)cc2)o1)c1ccc(S(=O)(=O)N2CCOCC2)cc1 | 5.28 (≈ 10.7 µM)
17 | O=C(COc1ccc2ccccc2c1)Nc1nnc2n1CCS2 | 23.6 (≈ 72.2 µM)
18 | Cc1ccc(C)c(-c2nnc(NC(=O)c3cccc(Cl)c3)o2)c1 | 16.3 (≈ 49.8 µM)
19 | C=CCOC(=O)COc1ccc2cc(-c3ccccc3)c(=O)oc2c1 | 1.22 (≈ 3.63 µM)
20 | O=C(Nc1nc(-c2ccc3c(c2)CCCC3)cs1)c1ccc2c(c1)OCCO2 | 14.5 (≈ 36.9 µM)
21 | Cc1ccc(C)c(-c2nnc(NC(=O)c3ccccc3[N+](=O)[O-])o2)c1 | 4.88 (≈ 14.4 µM)
22 | O=C1C(Cl)=C(Nc2ccccc2O)C(=O)N1c1ccc(Cl)c(Cl)c1 | 0.84 (≈ 2.19 µM)
23 | COc1cccc2sc(N(CCCn3ccnc3)C(=O)c3ccco3)nc12 | 12.4 (≈ 32.5 µM)
24 | Cc1nnc(SCC(=O)Nc2ccc3c(c2)OCCO3)n(N)c1=O | 23.1 (≈ 66.2 µM)

Row | Compound | IC90 [µg/mL]
25 | Cc1cn2c3c(=O)[nH]c(=O)n(C)c3nc2n1CCCN(C)Cc1ccccc1 | 2.62 (≈ 6.89 µM)
26 | O=C1NC(=S)NC(=O)C1=Cc1nc(-c2ccccc2Cl)n2ccccc12 | 10.8 (≈ 28.2 µM)
27 | Cc1ccc2cc(CCNC(=S)NCCn3ccc4ccccc43)c(=O)[nH]c2c1 | 1.26 (≈ 3.11 µM)
28 | COc1cc(OC)cc(C(=O)N(CCCn2ccnc2)c2nc3c(C)cc(C)cc3s2)c1 | 10.1 (≈ 22.3 µM)
29 | COc1cccc(Cn2cc3c(-c4ccc(Cl)cc4)nnc-3c3cc(OC)c(OC)cc32)c1 | 15.2 (≈ 33.1 µM)
30 | O=C(Nc1cccc(Cl)c1)c1cccc2nc3ccccc3nc12 | 4.6 (≈ 13.8 µM)
31 | CC1(C)Cc2c(sc(NC(=O)c3ccc(Oc4ccccc4)cc3)c2C(N)=O)C(C)(C)N1 | 6.22 (≈ 13.8 µM)
32 | Oc1cc(OCc2ccccc2Cl)ccc1-c1[nH]ncc1-c1ccccc1 | 7.69 (≈ 20.4 µM)
33 | O=C(Nc1nnc(-c2ccco2)o1)C1CCCCC1 | 50.4 (≈ 193 µM)
34 | C=CCNC(=S)NNc1ccc([N+](=O)[O-])cc1 | 10 (≈ 39.6 µM)
35 | Cc1cccc(C(=O)Nc2nnc(-c3ccc(C)cc3C)o2)c1 | 9.06 (≈ 29.5 µM)
36 | CC(C)(C)C(=O)Nc1nnc(-c2ccc(Br)cc2)o1 | < 0.2
37 | O=C(N=Nc1c(O)[nH]c2ccccc12)c1cc(-c2cccc(OCc3ccccc3)c2)n[nH]1 | 20.2 (≈ 46.2 µM)
38 | COc1ccc(C)c2sc(N(CCCn3ccnc3)C(=O)c3cccs3)nc12 | 2.4 (≈ 5.82 µM)
39 | COc1cccc(-c2nnc(NC(=O)c3ccc4c(c3)CCCC4)o2)c1 | 5.48 (≈ 15.7 µM)
40 | COc1cccc(-c2nnc(NC(=O)c3ccc(Cl)cc3)o2)c1 | 33.8 (≈ 102 µM)
41 | Cc1ccc(-c2nnc(NC(=O)c3ccc(Br)cc3)o2)c(C)c1 | 52.2 (≈ 140 µM)
42 | CC(C)OC(=O)COc1ccc2cc(-c3ccccc3)c(=O)oc2c1 | 2.97 (≈ 8.78 µM)
43 | O=C(CCOc1ccccc1)Nc1nnc(-c2ccc3c(c2)CCCC3)o1 | 18.1 (≈ 49.8 µM)
44 | Cc1ccc2nc(NNC(=O)c3cc4ccccc4oc3=O)sc2c1 | 1.75 (≈ 4.98 µM)
45 | CCc1ccc(OCC(=O)Nc2ccc(OC)cc2)cc1 | 12.7 (≈ 44.3 µM)
46 | CCCC(=O)Nc1nnc(-c2ccc(Cl)s2)o1 | 27.2 (≈ 100 µM)
47 | COc1cccc2sc(Nc3nc4c(s3)CC(C)CC4)nc12 (stereo unspecified) | 5.79 (≈ 17.5 µM)
48 | CC(C)(C)C(=O)Nc1nnc(C2=COCCO2)o1 | 48.6 (≈ 192 µM)

Row | Compound | IC90 [µg/mL]
49 | Cc1nc2c(ccc3nc(NC(=O)Cc4ccccc4)sc32)s1 | 2.92 (≈ 8.6 µM)
50 | Cc1ccc(-c2nnc(NC(=O)c3ccc([N+](=O)[O-])s3)o2)c(C)c1 | 0.61 (≈ 1.77 µM)
51 | O=C(Nc1nnc(-c2ccc3c(c2)CCCC3)o1)c1ccccc1F | 0.93 (≈ 2.76 µM)
52 | Cc1ccc(C)c(-c2nnc(NC(=O)c3cccc(F)c3)o2)c1 | 30.9 (≈ 99.2 µM)
53 | Cc1ccccc1C(=O)Nc1nnc(-c2ccco2)o1 | 1.69 (≈ 6.28 µM)
54 | O=c1[nH]c(CSc2ccccc2)nc2ccccc12 | 7.54 (≈ 28.1 µM)
55 | CC(C)CCNC(=O)c1c(O)nc2sccn2c1=O | 13.1 (≈ 46.6 µM)
56 | Cc1ccc(C(=O)Nc2cccc(-c3ccc4nnc(C)n4n3)c2)cc1C | 12.9 (≈ 36 µM)
57 | CCN1C(=O)c2cccc3c(NC(=O)c4ccc(S(=O)(=O)N(C)C)cc4)ccc1c23 | 24.2 (≈ 57.2 µM)
58 | CCc1ccc(Nc2ncnc3c2cnn3-c2ccc(C)cc2C)cc1 | 6.47 (≈ 18.8 µM)
59 | N=C1SCC(=O)N1c1ncc(Cc2cccc(Cl)c2)s1 | 2.11 (≈ 6.52 µM)
60 | O=C(c1ccco1)N(CCCn1ccnc1)c1nc2ccc(F)cc2s1 | 1.94 (≈ 5.24 µM)
61 | O=C(Nc1nnc(-c2ccc(F)cc2)o1)c1cccc(C(F)(F)F)c1 | 11.7 (≈ 33.4 µM)
62 | Cc1cccc2sc(N(CCCn3ccnc3)C(=O)c3ccco3)nc12 | 0.83 (≈ 2.26 µM)
63 | CCC(=O)Nc1nnc(-c2ccc(Cl)s2)o1 | 8.62 (≈ 33.4 µM)
64 | Cc1cc(C)c2nc(N(CCCn3ccnc3)C(=O)c3cccs3)sc2c1 | 1.45 (≈ 3.66 µM)
65 | O=C(Nc1nc(-c2nc3ccccc3s2)cs1)C1COc2ccccc2O1 (stereo unspecified) | 26.8 (≈ 67.8 µM)
66 | CC(=O)Nc1ccc2nc(Nc3nc4ccc(C(C)C)cc4s3)sc2c1 | 2 (≈ 5.23 µM)
67 | CSc1ccc2nc(Nc3cccc(C)c3C)sc2c1 | 18.8 (≈ 62.7 µM)
68 | COc1cccc(-c2nnc(SCC(=O)Nc3cc(C)on3)o2)c1 | 3.26 (≈ 9.41 µM)
69 | O=C(Nc1nnc(-c2cccs2)o1)C1=COCCO1 | 6.18 (≈ 22.1 µM)
70 | C(=N\n1cnnc1)/c1ccc(-n2nc(-c3ccccc3)cc2-c2ccccc2)cc1 | 15.1 (≈ 38.7 µM)
71 | O=C(OCn1nnc2ccccc2c1=O)c1ccccc1 | 1.41 (≈ 5.01 µM)
72 | COc1ccc(-c2nnc(NC(=O)C(C)C)o2)cc1 | 19.9 (≈ 76.3 µM)

Row | Compound | IC90 [µg/mL]
73 | CCOC(=O)c1ccc(-n2cc(O)c(C(=O)OCC)n2)cc1 | 20 (≈ 65.7 µM)
74 | COc1cccc(NCCCn2c(C)cn3c4c(=O)[nH]c(=O)n(C)c4nc23)c1 | 46.2 (≈ 121 µM)
75 | CCCCOc1ccc(C(=O)Nc2nnc(-c3ccncc3)o2)cc1 | 3.42 (≈ 10.1 µM)
76 | Cc1c(Cl)ccc2sc(N(CCCn3ccnc3)C(=O)c3ccco3)nc12 | 0.23 (≈ 0.574 µM)
77 | COc1ccc(CC2S/C(=N/N=C/c3ccccc3O)NC2=O)cc1 (stereo unspecified) | < 0.2
78 | Cc1ccc(C2CC(c3c(-c4ccccc4)c4cc(Cl)ccc4[nH]c3=O)=NO2)cc1 (stereo unspecified) | 12.4 (≈ 29.9 µM)
79 | Cc1ccc(C)c(-c2nnc(NC(=O)c3ccc(Cl)cc3Cl)o2)c1 | 2.21 (≈ 6.1 µM)
80 | Cc1cc(NC(=O)/C=C/c2ccc([N+](=O)[O-])s2)no1 | 4.04 (≈ 14.5 µM)
81 | COc1ccc(-c2nsc(SCC(=O)Nc3ccc(C(C)=O)cc3)n2)cc1 | 25.9 (≈ 64.9 µM)
82 | CC(=O)Nc1nnc(-c2ccc(C)cc2C)o1 | 23.9 (≈ 103 µM)
83 | O=C(NNc1nc2ccc(Cl)cc2s1)c1cc(-c2cccs2)nc2ccccc12 | 30.9 (≈ 70.8 µM)
84 | O=C(Nc1nnc(-c2cc(Cl)ccc2Cl)o1)c1ccc(Cl)cc1Cl | 0.74 (≈ 1.84 µM)
85 | Cn1c(=O)c2c(nc(SCC(=O)c3ccccc3)n2Cc2ccc(F)cc2)n(C)c1=O | 31.8 (≈ 72.4 µM)
86 | CC(C)CCn1c(N2CCN(Cc3cccc(Cl)c3)CC2)nc2c1c(=O)[nH]c(=O)n2C | 14.1 (≈ 31.8 µM)
87 | O=C(COc1ccc(Cl)cc1)N1CCN(c2ncnc3c2nnn3Cc2ccccc2)CC1 | 6.75 (≈ 14.5 µM)
88 | Cc1cccc(N2CCN(C(=O)CCCCCn3c(=O)[nH]c4ccsc4c3=O)CC2)c1C | 20.9 (≈ 46 µM)
89 | COc1ccc(-c2nnc(NC(=O)c3ccccc3F)o2)cc1 | 66.9 (≈ 214 µM)
90 | O=C(Nc1nnc(-c2ccccn2)o1)c1cccc(F)c1 | 3.47 (≈ 12.2 µM)
91 | COc1ccc2nc(Nc3sc4c(c3C(N)=O)CCC(C)C4)sc2c1 (stereo unspecified) | 27.8 (≈ 74.5 µM)
92 | C=CCOC(=O)COc1ccc2cc(-c3ccc(OC)cc3)c(=O)oc2c1 | 3.58 (≈ 9.77 µM)
93 | CC(=O)Oc1cc(C)cc2oc(=O)c3c(c12)CCCC3 | 6.79 (≈ 24.9 µM)
94 | COc1ccccc1N1CCN(c2nc(Nc3ccc(F)cc3)c3nccnc3n2)CC1 | 27.6 (≈ 63.9 µM)
95 | O=C(c1ccco1)N(CCCn1ccnc1)c1nc2c(F)cccc2s1 | 3.11 (≈ 8.4 µM)
96 | C=CCN(CC=C)S(=O)(=O)c1ccc(C(=O)Nc2nnc(-c3cc(Cl)ccc3Cl)o2)cc1 | 12.8 (≈ 25.9 µM)

Row | Compound | IC90 [µg/mL]
97 | Cc1ccc(Cl)cc1N1CCN(CC(O)COc2ccccc2[N+](=O)[O-])CC1 (stereo unspecified) | 13 (≈ 32.1 µM)
98 | O=C(Nc1nnc(-c2ccc3c(c2)CCCC3)o1)c1ccccc1 | 7.25 (≈ 22.7 µM)
99 | CS(=O)(=O)Nc1cccc(C2=NN(c3nc(-c4ccccc4)c4cc(Cl)ccc4n3)C(c3ccco3)C2)c1 (stereo unspecified) | 1.42 (≈ 2.61 µM)
100 | CC1CCN(S(=O)(=O)c2ccc(C(=O)NNc3nc4c(Cl)cccc4s3)cc2)CC1 | 24.7 (≈ 53.1 µM)
101 | O=C(Nc1nnc(-c2ccc3c(c2)CCCC3)o1)c1cc(Cl)sc1Cl | 3.53 (≈ 8.95 µM)
102 | O=C(/C=C/c1ccccc1)Nc1nc2c(s1)COc1ccccc1-2 | 6.8 (≈ 20.3 µM)
103 | Fc1ccc(Nc2nc(Nc3cccc(F)c3)nc3nccnc23)cc1 | 60.6 (≈ 173 µM)
104 | Cc1ccc(C)c(-c2nnc(NC(=O)c3cccc4ccccc34)o2)c1 | 0.41 (≈ 1.19 µM)
105 | CS(=O)(=O)c1ccc2nc(Nc3nc4ccc(Cl)cc4s3)sc2c1 | 9.7 (≈ 24.5 µM)
106 | Cc1ccc(Nc2nc(Nc3cccc(F)c3)nc(N3CCOCC3)n2)cc1C | 13.5 (≈ 34.2 µM)
107 | COc1cc(OC)cc(-c2nnc(NC(=O)c3ccc([N+](=O)[O-])o3)o2)c1 | 9.08 (≈ 25.2 µM)
108 | COc1ccc(OC)c(-c2csc(NC(=O)c3ccc([N+](=O)[O-])o3)n2)c1 | 27.1 (≈ 72.2 µM)
109 | COc1cc2c3nnc(-c4ccc(C)cc4)c-3cn(Cc3ccc(Cl)cc3)c2cc1OC | 4.8 (≈ 10.8 µM)
110 | O=C(Nc1nnc(-c2ccc3c(c2)CCCC3)o1)C1=COCCO1 | 9.82 (≈ 30 µM)
111 | CCOC(CNc1ncnc2c1cnn2-c1ccc(C)cc1)OCC | 25.6 (≈ 74.9 µM)
112 | O=C(Nc1nnc(-c2ccc(Cl)s2)o1)c1c(F)cccc1F | 3.8 (≈ 11.1 µM)
113 | Cc1ccc2sc(N(CCN(C)C)C(=O)c3cccc4ccccc34)nc2c1C | 11.8 (≈ 29.2 µM)
114 | COc1cccc(NC(=O)c2ccc(COc3cccc(C)c3)o2)c1 | 11.7 (≈ 34.7 µM)
115 | Cc1ccc(C)c(-c2nnc(NC(=O)C3COc4ccccc4O3)o2)c1 (stereo unspecified) | 1.18 (≈ 3.36 µM)
116 | NC(=O)c1c(NC(=O)/C=C/c2ccc([N+](=O)[O-])s2)sc2c1CCCC2 | 4.6 (≈ 12.2 µM)
